Test results published in patent publication US9901637B2, “Vitamin D3 and analogs thereof for treating alopecia” (priority 2009, dated 2018).

What was measured:
[1] = tested on: chemotherapy-induced alopecia (CIA); conditions: neonatal rats, i.p. chemotherapy, recorded 10 days after last dose
Description: Specifically, Long Evans and Sprague Dawley rats with pups were purchased from Harlan Laboratories, Inc. They were housed and fed according to applicable animal handling rules and regulations. Pups were allowed to acclimate for 48 hours prior to the start of experiments. […] Rats were isolated from their littermates and mother for 6-hour periods of time. Subsequently, the treated area was cleaned with soap and water and pups were returned to their litters. On day 13, rats either received etoposide (1.5 mg/kg daily for 3 days) or cyclophosphamide (CTX) (37.5 mg/kg once) or combination cyclophosphamide (35 mg/kg once) and doxorubicin (2.5 mg/kg daily for 3 days). All chemotherapies were purchased from Sigma and were given intraperitoneally (i.p.) in a total volume of 0.1 mL. Alopecia was recorded 10 days after the last dose of chemotherapy.

[2] = tested on: chemotherapy-induced alopecia (CIA); assay: Alopecia in chloroleukemic rats receiving multi-course chemotherapy, topical calcitriol; conditions: for Extent of Alopecia: number of rats with grade 4+: rats treated with Cyclophosphamide (CTX), 4+=75-100% alopecia
Excerpt: Long Evans Rats (Harlan Laboratories, Inc) were 3 days old upon arrival. The weight of the animals was obtained upon arrival and every day until the conclusion of the experiments using an electronic scale (American Scientific Products TL 410s). Rats were housed for two days prior to the beginning of experiments. Animals were then randomized in four groups.
Treatments were started on day 6 after birth. […] Each application entailed rubbing an area of 2 cm^2 for 10 seconds with right index finger covered with a nitrile exam glove. After the completion of the treatments, each rat was individually separated for 6 hours. Subsequently each rat's head and back was washed with mild hand soap (Soft CIDE-EC from VWR International) and distilled water. Pups where then placed back with their mothers and taken back to the animal rooms. For the second anagen cycle, adult rats were placed back in their cages with their littermates and taken back to the animal rooms.
On day 23 after birth, a blood sample was taken from all rats and differentials were performed. Rats with leukemia were sacrificed while rats without leukemia were used for further experiments. A second differential was performed on day 31, and leukemic animals were sacrificed.
Vials of 1 mL were subdivided and kept in the refrigerator at 4° C. […] Unused preparations were disposed of.
For the second course of chemotherapy, rats received 20 mg/kg ADM on days 47 to 49 as described above.

[3] = tested on: MIAC51; assay: Survival (cure) rate of chloroleukemic rats after two rounds of chemotherapy; assay type: in vivo, Long Evans Rats; conditions: rats treated with Cyclophosphamide (CTX), after Two Rounds of Chemotherapy
Description: Animals were then randomized in four groups. All rats received MIAC51 as described below.
On day 5 after birth all rats received 1×105 MIAC51 intraperitoneally in 0.1 ml of serum free (SF) RPMI. MIAC51 were cultured in RPMI 1640 supplemented with L-glutamine and 10% fetal bovine serum at […] in a 5% CO2, 100% humidity incubator. Cells were grown to 50% confluency (1.5×106 ml) collected in 50 ml conical tubes, centrifuged at 600 g for 10 minutes at room temperature and resuspended in SF-RPMI at a concentration of 1×10^6/ml prior to injection.

O=P1(N(CCCl)CCCl)NCCCO1 (centres unmarked) [CTX, cyclophosphamide]
alopecia in rats receiving chemotherapy without calcitriol [1]: totally alopecic
extent of alopecia (grade) in all rats receiving chemotherapy alone ([2]; chloroleukemic Long Evans rats, after the first round of chemotherapy): +4
Extent of Alopecia: number of rats with grade 4+ ([2]; after First Round of Chemotherapy): 40
Extent of Alopecia: number of rats with grade 4+ ([2]; after Second Round of Chemotherapy): 8
Survival Rate, % cured [3]: 20%
